The results in this text go back to ChEMBL document CHEMBL1221220, “Transport and signaling via the amino acid binding site of the yeast Gap1 amino acid transceptor” (Nat Chem Biol, 2009).

Changes are numbered by the printed parent chain. Active and inactive are the calls of the source. The calls are words filed in the database; no cut-off is given here.

Assay [1] has as its system T1, General amino-acid permease GAP1 (Saccharomyces cerevisiae), P19145 [S398C].
T1 sequence (whole entry): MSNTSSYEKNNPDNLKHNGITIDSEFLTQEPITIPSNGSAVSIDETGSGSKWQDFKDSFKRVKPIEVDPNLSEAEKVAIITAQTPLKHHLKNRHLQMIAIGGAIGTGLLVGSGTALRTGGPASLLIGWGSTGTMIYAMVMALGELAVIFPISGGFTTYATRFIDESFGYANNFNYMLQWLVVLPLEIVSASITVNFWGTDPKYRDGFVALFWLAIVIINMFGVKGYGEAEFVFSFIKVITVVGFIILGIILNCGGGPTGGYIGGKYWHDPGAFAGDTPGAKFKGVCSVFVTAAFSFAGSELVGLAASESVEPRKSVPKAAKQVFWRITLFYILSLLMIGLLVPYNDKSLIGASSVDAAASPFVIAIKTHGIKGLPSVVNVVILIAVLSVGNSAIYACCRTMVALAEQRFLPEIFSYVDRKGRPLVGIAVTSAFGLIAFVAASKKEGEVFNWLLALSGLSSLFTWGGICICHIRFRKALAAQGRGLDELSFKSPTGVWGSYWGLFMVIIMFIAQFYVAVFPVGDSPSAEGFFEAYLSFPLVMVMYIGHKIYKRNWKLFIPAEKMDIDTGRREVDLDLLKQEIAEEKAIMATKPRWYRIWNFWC
The assay is described as follows: Activation of yeast Gap1 S398C mutant-mediated amino acid uptake at 10 mM.

In assay [2] the test system is T2, General amino-acid permease GAP1 (Saccharomyces cerevisiae), P19145 [A393C].
T2 sequence (whole entry): T1 sequence (whole entry) with A393C, C398S
In words: Induction of yeast Gap1 A393C mutant-mediated trehalose activation at 10 mM.

Assay [3] deals with T3, General amino-acid permease GAP1 (Saccharomyces cerevisiae), P19145 [T400C].
T3 sequence (whole entry): T1 sequence (whole entry) with C398S, T400C
In words: Induction of yeast Gap1 T400C mutant-mediated trehalose activation at 2 mM in presence of 10 mM MTSEA treated before compound addition.

In assay [4] the test system is T4, General amino-acid permease GAP1 (Saccharomyces cerevisiae), P19145 [A405C].
T4 sequence (whole entry): T1 sequence (whole entry) with C398S, A405C
The assay is described as follows: Induction of yeast Gap1 A405C mutant-mediated […] activation at 2 mM in presence of 10 mM MTSEA treated before compound addition.

Assay [5] concerns General amino-acid permease GAP1 (Saccharomyces cerevisiae), P19145 [V389C]. In words: Induction of yeast Gap1 V389C mutant-mediated trehalose activation at 2 mM in presence of 10 mM MTSEA treated before compound addition.
Chain of General amino-acid permease GAP1 (Saccharomyces cerevisiae), P19145 [V389C] (P19145 whole entry V389C): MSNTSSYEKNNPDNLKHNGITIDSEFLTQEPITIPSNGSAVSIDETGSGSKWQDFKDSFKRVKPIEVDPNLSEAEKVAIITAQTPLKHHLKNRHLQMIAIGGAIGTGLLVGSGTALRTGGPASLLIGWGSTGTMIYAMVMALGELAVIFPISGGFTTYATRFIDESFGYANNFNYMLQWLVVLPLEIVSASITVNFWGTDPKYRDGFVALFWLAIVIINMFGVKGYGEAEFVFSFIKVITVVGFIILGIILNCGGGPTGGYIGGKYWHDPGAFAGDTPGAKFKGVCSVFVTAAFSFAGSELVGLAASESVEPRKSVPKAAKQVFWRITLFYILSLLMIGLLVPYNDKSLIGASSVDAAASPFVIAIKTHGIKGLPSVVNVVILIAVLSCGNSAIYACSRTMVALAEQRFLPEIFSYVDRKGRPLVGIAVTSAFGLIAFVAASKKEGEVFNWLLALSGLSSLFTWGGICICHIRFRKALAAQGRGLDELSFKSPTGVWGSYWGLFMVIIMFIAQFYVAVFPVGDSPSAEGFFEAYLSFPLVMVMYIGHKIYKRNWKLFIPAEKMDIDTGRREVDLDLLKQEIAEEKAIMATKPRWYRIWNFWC

Consider `NC(=O)NCCC[C@H](N)C(=O)O`, for which the result in assay [1] and in assay [2] was inactive. Further, the inhibition result in assay [3] and in assay [4] was “Active” throughout. For the same molecule, in assay [5], the inhibition result is “inactive”.
